Ki and Km data for two molecules are collected here from paper PMC2705520, “Inactivation and Unfolding of the Hyperthermophilic Inorganic Pyrophosphatase from Thermus thermophilus by Sodium Dodecyl Sulfate” (2009).

In data set [1] the target is T1, Inorganic pyrophosphatase (T-PPase) (Thermus thermophilus, UniProt Q72H95).
T1 construct: gene ppa
T1 sequence (Q72H95 1-175): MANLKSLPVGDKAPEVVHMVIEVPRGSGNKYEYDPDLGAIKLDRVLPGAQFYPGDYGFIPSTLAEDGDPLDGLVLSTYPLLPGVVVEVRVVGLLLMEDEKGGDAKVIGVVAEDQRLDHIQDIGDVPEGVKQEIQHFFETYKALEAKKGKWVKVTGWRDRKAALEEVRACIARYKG
The data set can be described thus: PPase activity assay (phosphomolybdate); Lineweaver-Burk and secondary replots, mixed type reversible inhibition. The format is biochemical. From the text: PPase activity assay (phosphomolybdate); Lineweaver-Burk and secondary replots, mixed type reversible inhibition on Inorganic pyrophosphatase (T-PPase) | Then the apparent inhibition constant could be calculated from Equations.

Substrate in the data set “purified protein”: O=P(O)(O)OP(=O)(O)O
The data set can be described thus: purified protein. Particulars: Mg2+ active site cavity formed by conserved polar residues, with Mg2+ ions.

Where a name gives a salt, the structure may show the parent alone.

Regarding `CCCCCCCCCCCCOS(=O)(=O)O` [Sodium dodecyl sulfate], the affinity in data set [1] corresponds to a Ki of 3.4 mM.

B1: Inorganic pyrophosphatase (T-PPase) (Thermus thermophilus HB27) (protein)
chain: T1 sequence (Q72H95 1-175)
Turning to B1, the Michaelis constant (Km) in “purified protein” amounted to 420 ± 40 µM.
